Experiments:
[1] = tested on: LIS1 heterozygous newborn mice; assay: LIS1 protein in newborn mouse brains after SNJ-1945 oral administration; assay type: in vivo
Experimental: A neo(−)129S-Pafah1b1^tm2Awb/J homozygous male mouse lacking neo gene was mated with five homozygous EII-Cre transgenic female mice (FVB/N-Tg (EIIa-cre) C5379Lmgd/J, The Jackson Laboratory) by raising them in the same mouse cage. In total, six sets of mouse cages were prepared for the mating experiment. A newborn was defined at the time of delivery confirmation, which was conducted every morning. SNJ-1945 was dissolved in dimethyl sulfoxide (DMSO) at a concentration of 100 mg/ml, and orally administered using pipettes to the newborn mice in an amount of 200 μg/per gram of body weight.
To determine the effect of SNJ-1945 administration, LIS1 proteins of normal newborn mice and LIS1 heterozygous newborn mice (administered with SNJ-1945) were measured. In the SNJ-1945 administration group, the brain tissues were taken at 0 hour (immediately after the administration), 1 hour, 2 hours, 4 hours, 8 hours, 12 hours, 16 hours, 24 hours, 48 hours, and 72 hours after the administration to measure LIS1 protein, so as to determine the effect of SNJ-1945 over time. Six mice for each group were used for the measurement of LIS1 protein (n=6).
The newborn mice were killed by cutting off their heads, and the brain tissues thereof were immediately isolated. For the measurement of LIS1 protein amount, the weight of the brains was immediately measured as soon as the brains were removed.

[2] = tested on: fibroblasts derived from human lissencephaly patient (Lis1 +/−); assay: Protein quantitative analysis (western blotting) in human fibroblasts; assay type: cell-based; details: final SNJ-1945 concentration=200μ, 2-hour culture, FIGS. 21 and 22
Experimental: In a clean bench, the cells were placed in a 6-well plate in an amount of 3×10^5 cells per well and cultured for 16 hours, thereby adhering the cells to each well. The culture medium in the well was discarded, and the SNJ-1945-containing culture solution (the culture solution containing SNJ-1945-dissolved in Dimethyl Sulfoxide (Sigma, D-5879); final SNJ-1945 concentration=200μ) was added in an amount of 2 ml/well, and a 2-hour culture was performed. As a control, another culture was performed using a culture medium containing the same amount of Dimethyl Sulfoxide (Sigma, D-5879).
After 2-hour culture by adding SNJ-1945, the cells were washed twice with PBS (−), 500 μl of PBS (−), was added and the cells were scraped with a cell scraper. The scraped cells were collected to a 1.5 ml tube to be subjected to centrifugation for 5 minutes at 4° C. and 15000 rpm; the supernatant was discarded, and a cell precipitate was obtained. […]
The absorbency of the cell extract was measured, and the protein amount of the entire solution was determined. […] The absorbency at 595 nm was measured using an ARVO Sx (PerkinElmer) 96-well plate reader, and the entire protein amount was determined.
Then, SDS-PAGE was conducted. […] Based on the protein amount determined by the Bradford method, the cells were loaded to each well of the gel in an amount of 10 μg/well. […]

COCCOCCOC(=O)N[C@@H](CC(C)C)C(=O)N[C@@H](Cc1ccccc1)C(=O)C(=O)NC1CC1 [compound 17, ((1S)-1-((((1S)-1-Benzyl-2,3-dioxo-3-(cyclopropylamino)propyl)amino)carbonyl)-3-methylbutyl)carbamic acid 5-methoxy-3-oxapentyl ester]
LIS1 protein amount in newborn brain ([1]; 200 μg per gram of body weight, oral, FIG. 7): recovered to substantially the normal level
duration of the effect on LIS1 protein after a single dose ([1]; 200 μg/g oral): continued for at least three days
LIS1 amount (western blotting) [2]: recovered nearly to the extent of the LIS1 level
amount of cytoplasmatic dynein intermediate chain (western blotting) [2]: also increased

Reference: US9539298B2, “Lissencephaly therapeutic agent” (OSAKA CITY UNIVERSITY, priority 2010, dated 2017)
